Data on 17 molecules can be found in US8859605B2, “Cysteine protease inhibitors” (Medivir UK Ltd, priority 2009, dated 2014).

The conditions of series [1]: reference markers (passive transport, active transport, active efflux); cited from earlier work.
The target in series [2] is human cathepsin L (Homo sapiens, UniProt P07711). The series can be described thus: Cathepsin L Ki (H-D-Val-Leu-Lys-AMC substrate). The following applies: pH 5.5, read-out: Ki Cat. L. The format is biochemical. As for the experimental part: The procedure above with the following amendments is used for the determination of Ki for cathepsin L.
The enzyme is commercially available human cathepsin L (for example Calbiochem). The substrate is H-D-Val-Leu-Lys-AMC available from Bahcem. The assay buffer is 100 mM sodium acetate 1 mM EDTA, pH5.5) The DMSO stock (10 mM in 100% DMSO) is diluted to 10% in assay buffer. Enzyme is prepared at 5 nM concentration in assay buffer plus 1 mM dithiothreitol just before use. 2 μL of 10 mM inhibitor made up in 100% DMSO is dispensed into row A. 10 μL of 50 μM substrate (=1/200 dilution of 10 mM stock in DMSO, diluted in assay buffer).
(§1) Potential inhibitors are screened using the above assay with variable concentrations of test compound. Reactions were initiated by addition of enzyme to buffered solutions of substrate and inhibitor. Ki values were calculated according to equation 1.
(§2) [formula] where v0 is the velocity of the reaction, V is the maximal velocity, S is the concentration of substrate with Michaelis constant of KM, and I is the concentration of inhibitor.

Series [3] concerns the target T1, human recombinant cathepsin K (Homo sapiens, UniProt P43235).
T1 construct: made in house; host or cells: not fixed: E coli, Pichia or Baculovirus systems are named as options
T1 sequence (P43235 115-329): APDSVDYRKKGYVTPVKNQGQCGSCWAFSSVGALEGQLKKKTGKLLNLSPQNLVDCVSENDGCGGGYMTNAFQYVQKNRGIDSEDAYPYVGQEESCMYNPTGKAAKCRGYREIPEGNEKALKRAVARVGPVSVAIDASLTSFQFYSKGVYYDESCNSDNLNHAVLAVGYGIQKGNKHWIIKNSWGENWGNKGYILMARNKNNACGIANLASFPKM
The series can be described thus: Determination of cathepsin K proteolytic catalytic activity (H-D-Ala-Leu-Lys-AMC substrate). Format: biochemical. Conditions: read-out: Ki Cat. K. As for the experimental part: Determination of Cathepsin K Proteolytic Catalytic Activity
Convenient assays for cathepsin K are carried out using human recombinant enzyme, such as that described in PDB. • ID BC016058 standard; mRNA; HUM; 1699 BP. • DE Homo sapiens cathepsin K (pycnodysostosis), mRNA (cDNA clone MGC:23107 • RX MEDLINE; RX PUBMED; 12477932. • DR RZPD; IRALp962G1234. • DR SWISS-PROT; P43235;
The recombinant cathepsin K can be expressed in a variety of commercially available expression systems including E coli, Pichia and Baculovirus systems. The purified enzyme is activated by removal of the prosequence by conventional methods.
Standard assay conditions for the determination of kinetic constants used a fluorogenic peptide substrate, typically H-D-Ala-Leu-Lys-AMC, and were determined in either 100 mM Mes/Tris, pH 7.0 containing 1 mM EDTA and 10 mM 2-mercaptoethanol or 100 mMNa phosphate, imM EDTA, 0.1% PEG4000 pH 6.5 or 100 mM Na acetate, pH 5.5 containing 5 mM EDTA and 20 mM cysteine, in each case optionally with […] as stabiliser. The enzyme concentration used was 5 nM. The stock substrate solution was prepared at 10 mM in DMSO. Screens were carried out at a fixed substrate concentration of 60 μM and detailed kinetic studies with doubling dilutions of substrate from 250 μM. The total DMSO concentration in the assay was kept below 3%. All assays were conducted at ambient temperature. Product fluorescence (excitation at 390 nm, emission at 460 nm) was monitored with a Labsystems Fluoroskan Ascent fluorescent plate reader. Product progress curves were generated over 15 minutes following generation of AMC product.
as §1, §2

Series [4] concerns the target T2, human cathepsin S (Homo sapiens, UniProt P25774).
T2 construct: made in house; host or cells: baculovirus expression system
Nature of the series: Cathepsin S Ki determination (boc-Val-Leu-Lys-AMC fluorescent substrate). Format: biochemical. Conditions: baculovirus-expressed human cathepsin S, pH 6.5; read-out: Ki Cat. S. As to the method:
Cathepsin S Ki Determination
The assay uses baculovirus-expressed human cathepsin S and the boc-Val-Leu-Lys-AMC fluorescent substrate available from Bachem in a 384 well plate format, in which 7 test compounds can be tested in parallel with a positive control comprising a known cathepsin S inhibitor comparator.
280 μL/well of 12.5% DMSO are added to rows B-H of two columns of a 96 deep well polypropylene plate. 70 μL/well of substrate is added to row A. 2×250 μL/well of assay buffer (100 mM Na phosphate, 100 mM NaCl, pH 6.5) is added to row A, mixed, and double diluted down the plate to row H.
100 μL/well of assay buffer is added to columns 2-5 and 7-12 of 4 rows of a 96 well V bottom polypropylene plate. 200 μL/well of assay buffer is added to columns 1 and 6.
2 μl of each 10 mM test compound is added to a separate well on row A, columns 1-10. Add 90 μl assay buffer containing 1 mM DTT and 2 nM cathepsin S to each well of rows B-H and 180 μl to row A. Mix row A using a multichannel pipette and double dilute to row G. Mix row H and read in the fluorescent spectrophotometer.
The second test compound is added to column 6 of the top row, the third to column 1 of the second row etc. Add 1 μL of comparator to column 6 of the bottom row. Mix column 1 and double dilute to column 5. Mix column 6 and double dilute to column 10. Using an 8-channel multistepping pipette set to 5×10 μL, distribute 10 μL/well of substrate to the 384 well assay plate. Distribute the first column of the substrate dilution plate to all columns of the assay plate starting at row A. The tip spacing of the multichannel pipette will correctly skip alternate rows. Distribute the second column to all columns starting at row B. Using a 12-channel multistepping pipette set to 4×10 μL, distribute 10 μL/well of inhibitor to the 384 well assay plate. Distribute the first row of the inhibitor dilution plate to alternate rows of the assay plate starting at A1. The tip spacing of the multichannel pipette will correctly skip alternate columns. Similarly, distribute the second, third and fourth rows to alternate rows and columns starting at A2, B1 and B2 respectively.
Mix 20 mL assay buffer and 20 μL 1M DTT. Add sufficient cathepsin S to give 2 nM final concentration.
Using the a distributor such as a Multidrop 384, add 30 μL/well to all wells of the assay plate and read in fluorescent spectrophotometer such as an Ascent.
Fluorescent readings, (excitation and emission wavelengths 390 nm and 460 nm respectively, set using bandpass filters) reflecting the extent of enzyme cleavage of the fluorescent substrate, […] the inhibitor, are linear rate fitted for each well.
Fitted rates for all wells for each inhibitor are fitted to the competitive inhibition equation using SigmaPlot 2000 to determine V, Km and Ki values.
as §1, §2

The structures appear in SMILES notation.

Sequence of human cathepsin L (P07711 114-333): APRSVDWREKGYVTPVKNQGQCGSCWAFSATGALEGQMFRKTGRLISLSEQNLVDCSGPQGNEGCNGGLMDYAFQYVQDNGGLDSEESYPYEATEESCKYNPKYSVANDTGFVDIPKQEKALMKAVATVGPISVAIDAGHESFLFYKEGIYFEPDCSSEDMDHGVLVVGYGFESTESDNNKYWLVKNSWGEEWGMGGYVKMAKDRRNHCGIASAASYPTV
T2 sequence (P25774 115-331): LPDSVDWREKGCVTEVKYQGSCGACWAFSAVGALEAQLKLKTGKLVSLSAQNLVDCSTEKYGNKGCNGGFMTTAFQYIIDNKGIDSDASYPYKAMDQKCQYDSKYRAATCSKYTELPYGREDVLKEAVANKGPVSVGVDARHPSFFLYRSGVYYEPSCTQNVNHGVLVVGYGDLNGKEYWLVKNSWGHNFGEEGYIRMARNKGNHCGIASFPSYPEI

As to `CN(Cc1cnc2nc(N)nc(N)c2n1)c1ccc(C(=O)N[C@@H](CCC(=O)O)C(=O)O)cc1` [Methotrexate], the “absorption in man (%)” value in series [1] is on record as 20%.
In the case of `OC[C@@H](O)[C@@H](O)[C@H](O)[C@H](O)CO` [Mannitol], the “absorption in man (%)” value in series [1] is reported as 16%.
What is called Ki is a dissociation constant, usually derived from enzyme kinetics or from competition with a known ligand. In the case of `CCNC(=O)N[C@@H](CC1(F)CCCC1)C(=O)NC1(C(=O)C(=O)Nc2ccn(C)n2)CCC1` [Example U4], the inhibition constant Ki in series [2] amounted to 2100 nM; in series [3], 620 nM; in series [4], 0.63 nM.
The like results for `CCN(CC)C(=O)N[C@@H](CC1(C)CCCC1)C(=O)N[C@]1(C(=O)C(=O)Nc2ccn(C)n2)C[C@@H](F)C1` [Example U1, 2-(3,3-Diethyl-ureido)-N-[3-fluoro-1-(1-methyl-1H-pyrazol-3-ylaminooxalyl)-cyclobutyl]-3-(1-methyl-cyclopentyl)-propionamide] were, in that order, 860 nM, 510 nM and 1.2 nM.
For `CCC(=O)N[C@@H](CC1(C)CCCC1)C(=O)N[C@]1(C(=O)C(=O)Nc2ccn(C)n2)C[C@@H](F)C1` [Example A1, N-[3-Fluoro-1-(1-methyl-1H-pyrazol-3-ylaminooxalyl)-cyclobutyl]-3-(1-methyl-cyclopentyl)-2-propionylamino-propionamide], in that order: 3900 nM, 850 nM and 0.8 nM.
For the molecule `N[C@@H](Cc1ccccc1)C(=O)O` [L-Phenylalanine], the “absorption in man (%)” value in series [1] is reported as 100%.
Consider `CC(=O)N[C@@H](CC1(C)CCC1)C(=O)NC1(C(=O)C(=O)Nc2ccn(C)n2)CC(F)(F)C1` [Example A13], for which the Ki in series [2] is 870 nM; in series [3], 340 nM; in series [4] it was 3.8 nM.
For `CC(=O)N[C@@H](CC(C)(C)C)C(=O)NC1(C(=O)C(=O)Nc2ccn(C)n2)CC(F)(F)C1` [Example A15], in that order: 6500 nM, 1200 nM and 20 nM.
Consider `CC(=O)N[C@@H](CC1(C)CCCC1)C(=O)NC1(C(=O)C(=O)Nc2ccn(C)n2)CCC1` [Example A6], for which the values for the Ki in series [2], in series [3] and in series [4] were 5200 nM, 580 nM and 0.81 nM, respectively.
The like results for `COC1CC(NC(=O)[C@H](CC2(C)CCCC2)NC(=O)CCl)(C(=O)C(=O)NC2CC2)C1` (stereo partly drawn) [Example A19] were, in that order, 25000 nM, 7400 nM and 5.6 nM.
For `CC(C)NC(=O)N[C@@H](CC1(F)CCCC1)C(=O)N[C@]1(C(=O)C(=O)Nc2ccn(C)n2)C[C@@H](F)C1` [Example U2, 3-(1-Fluoro-cyclopentyl)-N-[3-fluoro-1-(1-methyl-1H-pyrazol-3-ylaminooxalyl)-cyclobutyl]-2-(3-isopropyl-ureido)-propionamide], in that order: 2200 nM, 1300 nM and 1.3 nM.
The like results for `Cn1ccc(NC(=O)C(=O)C2(NC(=O)[C@H](CC3(F)CCCC3)NC(=O)C(F)F)CC(F)(F)C2)n1` [Example A36] were, in that order, 380 nM, 1100 nM and 3 nM.
For `CC(C)C(=O)NC(CC1(F)CCCC1)C(=O)NC1(C(=O)C(=O)Nc2ccn(C)n2)CC(F)C1` (stereo not drawn) [Example A30], the inhibition constant (Ki) in series [2] was determined as 3300 nM; in series [3], 720 nM; in series [4], 1 nM.
In the case of `[2H]C([2H])([2H])C(C(=O)N[C@@H](CC1(F)CCCC1)C(=O)NC1(C(=O)C(=O)Nc2ccn(C)n2)CC(F)(F)C1)(C([2H])([2H])[2H])C([2H])([2H])[2H]` [Example A37], the Ki in series [2] was 1800 nM; in series [3], 640 nM; in series [4], 3 nM.
The like results for `COC1CC(NC(=O)[C@H](CC2(F)CCCC2)NC(=O)C(C)(C)C)(C(=O)C(=O)Nc2ccn(C)n2)C1` (stereo partly drawn) [Example A31] were, in that order, 1200 nM, 340 nM and 1.8 nM.
Turning to `CC(C)C(=O)N[C@@H](CC1(C)CCCC1)C(=O)NC1(C(=O)C(=O)Nc2ccn(C)n2)CC(F)(F)C1` [Example A25], the inhibition constant Ki in series [2] was determined as 2300 nM; in series [3] it was 1100 nM; in series [4], 1 nM.
Consider `COC1CC(NC(=O)[C@H](CC2(C)CCCC2)NC(C)=O)(C(=O)C(=O)NC2CC2)C1` (stereo partly drawn) [Example A16], for which the inhibition constant Ki came to 33000 nM in series [2], 12000 nM in series [3] and 10 nM in series [4].
